Experimental data: PMC9323974, “Palladium(II) Complexes of Substituted Salicylaldehydes: Synthesis, Characterization and Investigation of Their Biological Profile” (Pharmaceuticals, 2022)
Several values for one entry are separate records, joined by “and”; a condition that tells them apart may be missing. Equal entries are not always repeated. Where two headings read alike, the source gives them in different places.

Assays:
[1] = test system: Staphylococcus aureus ATCC 6538; assay: MIC determination; assay type: cell-based; details: for MIC: read-out: MIC S. aureus
Method: (§1) S2 Antibacterial activity
(§2) The antimicrobial activity of the compounds was evaluated by determining their respective MIC values towards two Gram–(–) (Escherichia coli NCTC 29212 (E. coli) and Xanthomonas campestris ATCC 1395 (X. campestris)) and two Gram–(+) (Staphylococcus aureus ATCC 6538 (S. aureus) and Bacillus subtilis ATCC 6633 (B. subtilis)) bacterial species. Cultures of these microbial strains were grown on a rich selective agar medium and stored at 4°C. The selective media used were Nutrient Agar or Broth for B. subtilis and S. aureus, Yeast Mold Agar or Broth for X. campestris and Luria Agar or Broth for E. coli. Cells picked from the surface of the stored cultures were used to initiate liquid pre–cultures of the same selective medium at an initial turbidity of roughly 1 McFarland unit. Pre–cultures were incubated for 24 h in a rotary shaking incubator and subsequently they were used to inoculate the test cultures used for the determination of MIC at an initial turbidity of 0.5 McFarland units. The test cultures consisted of Mueller –Hinton broth (Deben Diagnostics Ltd) containing different concentrations of the compounds.
(§3) Different concentrations were achieved as follows: the compounds were freshly dissolved in DMSO to a concentration of 1 mg mL–1 and they were diluted with DMSO, using the method of progressive double dilution. Therefore, working solutions with decreasing concentrations of the compounds under investigation were achieved. The working solutions were subsequently diluted to the final desired concentration by addition to the growth medium at a proportion of 2:98. MIC values were determined as the lowest concentrations of the tested compounds that inhibited visible growth of each respective organism after a 24 h incubation [ S3]. Bacterial growth was determined by measuring the turbidity of appropriately diluted cultures at 600 nm with reference to equally diluted sterile growth medium and the inhibition achieved was calculated by comparing the turbidity of each culture to the average of the turbidity of three non–inhibited cultures. All test cultures were grown in triplicates and for the determination of MIC, growth had to be inhibited in at least two cultures of the triplicate. Incubation temperature at all stages was 37°C except for X. campestris that was cultivated at 28°C [S4].

[2] = test system: Escherichia coli NCTC 29212; assay: MIC determination; assay type: cell-based; details: for MIC: read-out: MIC E. coli
Method: as §1, §2, §3

[3] = test system: Bacillus subtilis ATCC 6633; assay: MIC determination; assay type: cell-based; details: for MIC: read-out: MIC B. subtilis
Method: as §1, §2, §3

[4] = test system: Xanthomonas campestris ATCC 1395; assay: MIC determination; assay type: cell-based; details: for MIC X. campestris: 24 h; for MIC: Xanthomonas campestris, ATCC1395, 24 h, read-out: MIC X. campestris
Method: as §1, §2, §3

[5] = target: CT DNA; assay: CT DNA binding by UV-vis spectroscopy; set-up: species or system calf; details: Wolfe–Shimer equation
Method: page 8: […] spectroscopy, viscosity measurements and fluorescence emission spectroscopy studies. […] UV-vis spectroscopy was used for the evaluation of the interaction of the compounds with CT DNA, and specifically the possible binding modes of the compounds to CT DNA. Control experiments with DMSO were performed and no changes in the spectra of CT DNA were observed. In order to determine the binding mode, the UV-vis spectra of the compounds were […] concentrations of CT DNA for diverse r (r = [complex]/[DNA]) values. Effective use of the changes […] compounds were calculated by the Wolfe-[…] equation (eq. […] εf) versus [DNA]: (eq. S1) where [DNA] = the concentration of DNA in base pairs, ε f= the extinction coefficient for the free compound at the corresponding λmax, εA = Aobsd/[compound] and εb= the extinction coefficient for the compound in the fully bound form. K b is given by the ratio of slope to the y intercept in plots [DNA]/(εA-εf) versus [DNA]. S3.2 CT DNA-binding studies by viscosity measurements […] presence of increasing amounts of the compounds. The experiments were executed at room temperature and the measurements are devised in a plot (η/η 0)1/3 versus r, where η = the viscosity of DNA in the presence of the compound, and η0 = the viscosity of neat DNA in buffer solution. […] In order to determine and confirm the DNA-binding mode of the compounds, a competitive study with EB as an intercalating marker is performed by fluorescence emission spectroscopy. Therefore, the EB-displacing ability of the compounds from its EB-DNA conjugate was examined. […] solution (150 mM NaCl and 15 mM trisodium citrate at pH 7.0). The potential intercalation of the compounds between the DNA-bases was studied by the addition of a certain amount of the 8 (1 picture or pasted object on this page, not shown here)

[6] = Staphylococcus aureus, ATCC6538, 24 h
[7] = Escherichia coli, NCTC29212, 24 h
[8] = Bacillus subtilis, ATCC6633, 24 h

SMILES | MIC S. aureus ([1]; 24 h) [µg/mL] | MIC ([1]; 24 h, value in parentheses) [µM] | MIC E. coli ([2]; 24 h) [µg/mL] | MIC ([2]; 24 h, value in parentheses) [µM] | MIC B. subtilis ([3]; 24 h) [µg/mL] | MIC ([3]; 24 h, value in parentheses) [µM] | MIC X. campestris [4] [µg/mL] | MIC X. campestris ([4]; value in parentheses) [µM] | Kb (DNA-binding constant) [5] | MIC [1, 6] | MIC [2, 7] | MIC [3, 8] | MIC [4]
COc1ccc(C=O)c([O-])c1.COc1ccc(C=O)c([O-])c1.[Pd+2] [Complex 5, [Pd(4-OMe-salo)2]] | 100 | 245 | 100 | 245 | 100 | 245 | 100 | 245 | 1.27 (±0.10) × 10^6 M^−1 |  |  |  | 
O=Cc1cc(Cl)cc(Cl)c1[O-].O=Cc1cc(Cl)cc(Cl)c1[O-].[Pd+2] [Complex 3, [Pd(3,5-diCl-salo)2]] | 25 | 51 | 25 | 51 | 50 | 103 | 25 | 51 | 1.90 (±0.12) × 10^6 M^−1 |  |  |  | 
CCN(CC)c1ccc(C=O)c(O)c1 [4-Et2N-saloH, 4-diethylamino-salicylaldehyde, reference compound] |  |  |  |  |  |  |  |  | 5.06 (±0.14) × 10^5 M^−1 | > 200 µg/mL and > 1040 µM | > 200 µg/mL and > 1040 µM | > 200 µg/mL and > 1040 µM | > 200 µg/mL and > 1040 µM
CCN(CC)c1ccc(C=O)c([O][Pd][O]c2cc(N(CC)CC)ccc2C=O)c1 [Complex 1, [Pd(4-Et2N-salo)2]] | 100 | 204 | 100 | 204 | 100 | 204 | 200 | 407 | 3.66 (±0.22) × 10^5 M^−1 |  |  |  | 
O=Cc1cc(Br)cc(Br)c1[O][Pd][O]c1c(Br)cc(Br)cc1C=O [Complex 2, [Pd(3,5-diBr-salo)2]] | 25 | 38 | 25 | 38 | 25 | 38 | 25 | 38 | 3.18 (±0.21) × 10^5 M^−1 |  |  |  | 
COc1ccc(C=O)c(O)c1 [4-OMe-saloH, 4-methoxy-salicylaldehyde, reference compound] |  |  |  |  |  |  |  |  |  | > 200 µg/mL and > 1310 µM | > 200 µg/mL and > 1310 µM | > 200 µg/mL and > 1310 µM | > 200 µg/mL and > 1310 µM
O=Cc1cc(F)ccc1[O-].O=Cc1cc(F)ccc1[O-].[Pd+2] [Complex 4, [Pd(5-F-salo)2]] | 100 | 259 | 100 | 259 | 100 | 259 | 100 | 259 | 2.84 (±0.14) × 10^5 M^−1 |  |  |  | 
O=Cc1cc(F)ccc1O [5-F-saloH, 5-fluoro-salicylaldehyde, reference compound] |  |  |  |  |  |  |  |  | 8.37 (±0.47) × 10^4 M^−1 | 200 µg/mL and 1430 µM | 200 µg/mL and 1430 µM | 200 µg/mL and 1430 µM | 200 µg/mL and 1430 µM
